Article PMC11619978 (Heliyon, 2024)
Entries after “also recorded” stand apart in the source; their conditions may differ.

Assays:
[1] = biological target: T1, human pancreatic α-amylase (Homo sapiens, UniProt P04746); experiment: α-amylase inhibition assay; format: biochemical
T1 sequence (P04746 16-511): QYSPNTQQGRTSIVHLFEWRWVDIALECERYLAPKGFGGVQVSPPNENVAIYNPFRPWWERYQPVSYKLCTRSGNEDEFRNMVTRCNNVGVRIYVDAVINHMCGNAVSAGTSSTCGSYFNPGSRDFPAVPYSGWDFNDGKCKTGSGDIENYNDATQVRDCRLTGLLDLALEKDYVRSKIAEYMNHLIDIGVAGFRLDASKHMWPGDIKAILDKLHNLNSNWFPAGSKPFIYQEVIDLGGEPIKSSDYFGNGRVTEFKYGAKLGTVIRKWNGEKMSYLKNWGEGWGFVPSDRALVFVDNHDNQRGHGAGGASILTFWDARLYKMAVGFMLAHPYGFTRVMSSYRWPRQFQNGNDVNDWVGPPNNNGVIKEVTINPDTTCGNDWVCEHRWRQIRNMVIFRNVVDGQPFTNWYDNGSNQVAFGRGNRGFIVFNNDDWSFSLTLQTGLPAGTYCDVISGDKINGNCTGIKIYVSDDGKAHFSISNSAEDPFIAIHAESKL

[2] = biological target: human lysosomal acid-α-glucosidase (Homo sapiens, UniProt P10253); experiment: α-glucosidase inhibition assay; format: biochemical
[3] = biological target: T2, α-amylase (Homo sapiens, UniProt P04746); experiment: enzymatic kinetic study on α-amylase; format: biochemical; settings: for mode of α-amylase inhibition: Lineweaver-Burk plot
T2 sequence (P04746 16-511): T1 sequence (P04746 16-511)

[4] = biological target: α-glucosidase (Homo sapiens, UniProt P10253); experiment: enzymatic kinetic study on α-glucosidase; format: biochemical; settings: for mode of α-glucosidase inhibition: Lineweaver-Burk plot
[5] = test system: female mice; experiment: acute oral toxicity; format: in vivo; settings: three female mice

| SMILES | IC50 [1] [µM] | IC50 [2] [µM] | other results |
| --- | --- | --- | --- |
| CC(C)[C@@H]1CC[C@@H](C)C[C@@]12N(C)C(=O)[C@@H]1C[C@@H](Cc3cccc(/C=N/NC(=S)N(C)C)c3O)ON12 [5d] | 58.8 ± 2.22 | 98.6 ± 4.35 | – |
| C[C@H]1O[C@H](O[C@H]2[C@H](O)[C@@H](O)[C@@H](O[C@H]3[C@H](O)[C@@H](O)C(O)O[C@@H]3CO)O[C@@H]2CO)[C@H](O)[C@@H](O)[C@@H]1N[C@H]1C=C(CO)[C@@H](O)[C@H](O)[C@H]1O (stereo partly drawn) [Acarbose, reference compound] | – | – | mode of α-amylase inhibition [3]: competitive; mode of α-glucosidase inhibition [4]: competitive; also recorded: compete with the substrate for binding to the active site |
| CC(C)[C@@H]1CC[C@@H](C)C[C@@]12N(C)C(=O)[C@@H]1C[C@@H](Cc3cccc(/C=N/NC(N)=S)c3O)ON12 [5e] | 33.9 ± 1.09 | 49.3 ± 2.19 | – |
| CC(C)[C@@H]1CC[C@@H](C)C[C@@]12N(C)C(=O)[C@@H]1C[C@@H](Cc3cccc(/C=N/NC(=O)Nc4ccccc4)c3O)ON12 [5a] | 151 ± 7.4 | 263 ± 12.2 | – |
| CNC(=S)N/N=C/c1cccc(C[C@@H]2C[C@H]3C(=O)N(C)[C@@]4(C[C@H](C)CC[C@H]4C(C)C)N3O2)c1O [5g] | 64.2 ± 3.15 | 158 ± 7.09 | – |
| CC(C)[C@@H]1CC[C@@H](C)C[C@@]12N(C)C(=O)[C@@H]1C[C@@H](Cc3cccc(/C=N/NC(N)=O)c3O)ON12 [5f] | 26.7 ± 1.25 | 39.1 ± 1.83 | fold improvement over acarbose, α-amylase ([1]; versus acarbose IC50): about 11 fold; fold improvement over acarbose, α-glucosidase ([2]; versus acarbose IC50): ~20 fold; Ki [3]: 24.9 µM; mode of α-amylase inhibition [3]: competitive inhibition; Ki [4]: 37 µM; mode of α-glucosidase inhibition [4]: competitive; also recorded: compete with the substrate for binding to the active site; survival at 1600 mg/kg b.w. ([5]; 1600 mg/kg b.w.): only one mouse was survived; dose with no toxicity (no significant adverse effects or mortality) [5]: up to 1000 mg/kg b.w. |
| CC(C)[C@@H]1CC[C@@H](C)C[C@@]12N(C)C(=O)[C@@H]1C[C@@H](Cc3cccc(/C=N/NC(=S)Nc4ccccc4)c3O)ON12 [5b] | 198 ± 9.5 | 286 ± 13.5 | – |
| CCNC(=S)N/N=C/c1cccc(C[C@@H]2C[C@H]3C(=O)N(C)[C@@]4(C[C@H](C)CC[C@H]4C(C)C)N3O2)c1O [5c] | 73.1 ± 3.31 | 203 ± 10 | – |
